According to patent US10208040B2, “Fused imidazo-piperidine JAK inhibitors” (THERAVANCE BIOPHARMA R&D IP, LLC, priority 2017, dated 2019):

Assays:
[1] = tested on: IL-2/anti-CD3 stimulated STAT5 phosphorylation in CD4+ T cells; assay: Inhibition of IL-2 stimulated pSTAT5 in CD4+ T cells; type: cell-based; details: CD4+ T cells in human PBMCs; read-out: pIC50 inhibition of IL-2 stimulated pSTAT5 (converted)
Protocol: (§1) The potency of the test compound for inhibition of interleukin-2 (IL-2)/anti-CD3 stimulated STATS phosphorylation was measured in CD4-positive (CD4+) T cells in human peripheral blood mononuclear cells (PBMCs) isolated from human whole blood (Stanford Blood Center) using flow cytometry. Because IL-2 signals through JAK, this assay provides a measure of JAK cellular potency.
CD4+ T cells were identified using a […] (PE) conjugated anti-CD4 antibody (Clone RPA-T4, BD Biosciences), while an Alexa Fluor 647 conjugated anti-pSTAT5 antibody (pY694, Clone 47, BD Biosciences) was used to detect STATS phosphorylation.
(1) The protocol of Assay 7 paragraph (1) was followed with the exception that the cytokine stimulation with anti-CD3 was performed for 30 min instead of 24 h.
(2) After cytokine stimulation, cells were fixed with pre warmed fix solution (200 μL; BD Biosciences) for 10 min at 37° C., 5% CO2, washed twice with DPBS buffer (1 mL, Life Technologies), and resuspended in ice cold Perm Buffer III (1000 μL, BD Biosciences) for 30 min at 4° C. Cells were washed twice with 2% FBS in DPBS (FACS buffer), and then resuspended in FACS buffer (100 μL) containing anti-CD4 PE (1:50 dilution) and anti-CD3 […] (1:5 dilution) for 60 min at room temperature in the dark. After incubation, cells were washed twice in FACS buffer before being analyzed using a LSRII flow cytometer (BD Biosciences). To determine the inhibitory potency of test compounds in response to IL-2/anti-CD3, the median fluorescent intensity (MFI) of pSTAT5 was measured in CD4+ T cells. IC50 values were determined from analysis of the inhibition curves of MFI vs compound concentration. Data are expressed as pIC50 (negative decadic logarithm IC50) values.

[2] = target: JAK1 (Homo sapiens (Human), UniProt P23458); assay: Biochemical JAK kinase assay (LanthaScreen), JAK1
Sequence of JAK1 (P23458 whole entry): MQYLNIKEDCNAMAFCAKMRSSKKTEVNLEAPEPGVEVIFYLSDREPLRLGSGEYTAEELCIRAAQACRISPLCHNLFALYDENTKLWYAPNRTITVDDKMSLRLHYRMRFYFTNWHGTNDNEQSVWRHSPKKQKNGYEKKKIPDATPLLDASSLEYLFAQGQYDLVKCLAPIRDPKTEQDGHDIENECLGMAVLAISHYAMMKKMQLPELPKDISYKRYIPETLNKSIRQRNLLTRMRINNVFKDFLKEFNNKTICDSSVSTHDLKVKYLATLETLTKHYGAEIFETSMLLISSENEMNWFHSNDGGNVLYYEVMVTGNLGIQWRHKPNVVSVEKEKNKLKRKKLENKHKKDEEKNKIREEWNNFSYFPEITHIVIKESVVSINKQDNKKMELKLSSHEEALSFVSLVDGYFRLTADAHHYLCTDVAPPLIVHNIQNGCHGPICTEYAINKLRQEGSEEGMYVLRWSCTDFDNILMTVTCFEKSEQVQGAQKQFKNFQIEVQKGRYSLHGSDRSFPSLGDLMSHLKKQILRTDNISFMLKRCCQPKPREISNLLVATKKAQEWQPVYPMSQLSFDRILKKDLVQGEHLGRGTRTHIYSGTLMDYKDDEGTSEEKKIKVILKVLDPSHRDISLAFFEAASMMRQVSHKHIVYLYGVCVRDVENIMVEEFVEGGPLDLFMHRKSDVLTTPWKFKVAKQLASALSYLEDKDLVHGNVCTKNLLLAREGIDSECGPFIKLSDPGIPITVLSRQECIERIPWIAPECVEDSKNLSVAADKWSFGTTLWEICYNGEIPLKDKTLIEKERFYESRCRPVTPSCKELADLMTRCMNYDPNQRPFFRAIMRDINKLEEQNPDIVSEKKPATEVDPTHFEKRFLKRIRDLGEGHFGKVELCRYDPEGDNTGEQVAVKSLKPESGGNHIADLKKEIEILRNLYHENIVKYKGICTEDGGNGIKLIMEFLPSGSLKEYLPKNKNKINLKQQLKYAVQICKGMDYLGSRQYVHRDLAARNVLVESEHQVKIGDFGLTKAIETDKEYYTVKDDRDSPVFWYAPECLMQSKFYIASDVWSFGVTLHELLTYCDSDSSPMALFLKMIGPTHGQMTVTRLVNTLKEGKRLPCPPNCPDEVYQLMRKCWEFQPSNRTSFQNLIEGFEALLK
Protocol: (§2) A panel of four LanthaScreen JAK biochemical assays (JAK1, 2, 3 and Tyk2) were carried in a common kinase reaction buffer (50 mM HEPES, pH 7.5, 0.01% Brij-35, 10 mM MgCl2, and 1 mM EGTA). Recombinant GST-tagged JAK enzymes and a GFP-tagged STAT1 peptide substrate were obtained from Life Technologies.
(§3) Serially diluted compounds were pre-incubated with each of the four JAK enzymes and the substrate in white 384-well microplates (Corning) at ambient temperature for 1 h. ATP was subsequently added to initiate the kinase reactions in 10 μL total volume, with 1% DMSO. […] The plates were allowed to incubate at ambient temperature for 1 h before being read on the EnVision reader (Perkin Elmer).
(§4) For dose-response analysis, percent inhibition data were plotted vs. compound concentrations, and IC50 values were determined from a 4-parameter robust fit model with the Prism software (GraphPad Software). Results were expressed as pIC50 (negative logarithm of IC50) and subsequently converted to pKi (negative logarithm of dissociation constant, Ki) using the Cheng-Prusoff equation.

[3] = target: Tyk2 (Homo sapiens (Human), UniProt P29597); assay: Biochemical JAK kinase assay (LanthaScreen), Tyk2
Sequence of Tyk2 (P29597 whole entry): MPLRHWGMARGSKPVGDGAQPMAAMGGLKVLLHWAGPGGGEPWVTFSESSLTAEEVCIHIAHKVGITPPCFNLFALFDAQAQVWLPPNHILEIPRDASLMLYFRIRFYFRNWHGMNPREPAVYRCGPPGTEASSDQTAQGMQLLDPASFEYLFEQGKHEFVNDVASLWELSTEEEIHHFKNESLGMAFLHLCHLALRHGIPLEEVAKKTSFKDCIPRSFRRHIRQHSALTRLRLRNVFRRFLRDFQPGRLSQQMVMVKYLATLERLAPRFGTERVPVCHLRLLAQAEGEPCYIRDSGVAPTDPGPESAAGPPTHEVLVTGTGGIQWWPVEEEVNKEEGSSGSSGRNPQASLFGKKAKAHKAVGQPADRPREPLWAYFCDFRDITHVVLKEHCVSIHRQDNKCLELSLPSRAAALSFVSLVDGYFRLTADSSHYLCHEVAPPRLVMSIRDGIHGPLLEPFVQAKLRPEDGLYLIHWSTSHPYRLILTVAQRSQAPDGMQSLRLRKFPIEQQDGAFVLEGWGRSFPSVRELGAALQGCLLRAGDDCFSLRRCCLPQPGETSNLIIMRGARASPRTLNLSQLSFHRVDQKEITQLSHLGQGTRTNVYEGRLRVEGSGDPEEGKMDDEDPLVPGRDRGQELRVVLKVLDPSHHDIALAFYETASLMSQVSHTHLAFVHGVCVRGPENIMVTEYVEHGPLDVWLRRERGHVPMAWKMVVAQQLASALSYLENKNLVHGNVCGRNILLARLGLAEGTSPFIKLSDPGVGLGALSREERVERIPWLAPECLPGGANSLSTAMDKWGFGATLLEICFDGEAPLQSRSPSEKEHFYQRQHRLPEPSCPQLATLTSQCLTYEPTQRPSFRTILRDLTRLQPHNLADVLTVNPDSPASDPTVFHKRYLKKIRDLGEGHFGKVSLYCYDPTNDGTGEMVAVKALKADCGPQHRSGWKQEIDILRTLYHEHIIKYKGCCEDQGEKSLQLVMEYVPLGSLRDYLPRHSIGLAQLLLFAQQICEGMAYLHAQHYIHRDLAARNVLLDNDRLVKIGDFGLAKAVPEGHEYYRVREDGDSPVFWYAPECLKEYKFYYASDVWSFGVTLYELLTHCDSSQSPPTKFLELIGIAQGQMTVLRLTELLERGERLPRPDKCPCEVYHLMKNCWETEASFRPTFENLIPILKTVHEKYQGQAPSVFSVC
Protocol: as §2, §3, §4

[4] = tested on: IL-2/anti-CD3 stimulated IFNγ in human PBMCs; assay: Inhibition of IL-2/anti-CD3 stimulated IFNγ in human PBMCs; type: cell-based; details: PBMC, read-out: pIC50 inhibition of IL-2/anti-CD3 stimulated IFNγ (converted)
Protocol: as §1, with “interferon gamma (IFNγ)” for “STATS phosphorylation”, “measured” for “measured in CD4-positive (CD4+) T cells”, “Center).” for “Center) using flow cytometry.”
(1) Human peripheral blood mononuclear cells (PBMC) were isolated from human whole blood of healthy donors using a ficoll gradient. Cells were cultured in a 37° C., 5% CO2 humidified incubator in RPMI (Life Technologies) supplemented with 10% Heat Inactivated Fetal Bovine Serum (FBS, Life Technologies), 2 mM Glutamax (Life Technologies), 25 mM HEPES (Life Technologies) and 1× Pen/Strep (Life Technologies). Cells were seeded at 200,000 cells/well in media (50 μL) and cultured for 1 h. Compounds were serially diluted in DMSO and then diluted another 500-fold (to a 2× final assay concentration) in media. Test compounds (100 μL/well) were added to cells, and incubated at 37° C., 5% CO2 for 1 h, followed by the addition of IL-2 (R&D Systems; final concentration 100 ng/mL) and anti-CD3 (BD Biosciences; final concentration 1 μg/mL) in pre-warmed assay media (50 μL) for 24 h.
(2) After cytokine stimulation, cells were centrifuged at 500 g for 5 min and supernatants removed and frozen at −80° C. To determine the inhibitory potency of the test compound in response to IL-2/anti-CD3, supernatant IFNγ concentrations were measured via ELISA (R&D Systems). IC50 values were determined from analysis of the inhibition curves of concentration of IFNγ vs compound concentration. Data are expressed as pIC50 (negative decadic logarithm IC50) values.

[5] = target: JAK2 (Homo sapiens (Human), UniProt O60674); assay: Biochemical JAK kinase assay (LanthaScreen), JAK2
Sequence of JAK2 (O60674 whole entry): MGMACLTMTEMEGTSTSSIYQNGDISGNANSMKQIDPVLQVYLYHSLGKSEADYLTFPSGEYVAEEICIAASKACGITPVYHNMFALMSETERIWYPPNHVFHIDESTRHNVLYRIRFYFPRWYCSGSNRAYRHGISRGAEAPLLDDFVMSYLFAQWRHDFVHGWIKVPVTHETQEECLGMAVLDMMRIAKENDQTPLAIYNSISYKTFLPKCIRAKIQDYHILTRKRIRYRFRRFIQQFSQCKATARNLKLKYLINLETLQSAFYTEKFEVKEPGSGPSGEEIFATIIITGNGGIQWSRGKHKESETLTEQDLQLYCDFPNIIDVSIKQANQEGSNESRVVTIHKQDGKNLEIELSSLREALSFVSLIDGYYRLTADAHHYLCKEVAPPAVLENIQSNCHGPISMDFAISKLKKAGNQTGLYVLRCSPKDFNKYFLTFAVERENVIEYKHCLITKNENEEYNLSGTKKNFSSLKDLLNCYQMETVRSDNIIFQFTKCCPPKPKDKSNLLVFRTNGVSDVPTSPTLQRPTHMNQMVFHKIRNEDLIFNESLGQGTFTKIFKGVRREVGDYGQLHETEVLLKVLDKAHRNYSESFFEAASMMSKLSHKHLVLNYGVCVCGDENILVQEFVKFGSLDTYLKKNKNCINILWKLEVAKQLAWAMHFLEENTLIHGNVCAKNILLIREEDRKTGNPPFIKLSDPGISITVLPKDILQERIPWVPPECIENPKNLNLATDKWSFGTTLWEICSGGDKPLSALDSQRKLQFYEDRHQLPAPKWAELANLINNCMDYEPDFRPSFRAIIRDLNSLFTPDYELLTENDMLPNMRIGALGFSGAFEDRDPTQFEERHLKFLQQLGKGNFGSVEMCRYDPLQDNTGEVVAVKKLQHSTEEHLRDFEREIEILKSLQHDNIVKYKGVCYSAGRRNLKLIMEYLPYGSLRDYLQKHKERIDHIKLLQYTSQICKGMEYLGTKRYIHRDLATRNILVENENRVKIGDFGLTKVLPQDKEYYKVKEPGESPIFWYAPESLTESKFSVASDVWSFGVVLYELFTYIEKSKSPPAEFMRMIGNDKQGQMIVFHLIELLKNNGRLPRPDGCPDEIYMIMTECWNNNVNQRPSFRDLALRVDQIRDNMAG
Protocol: as §2, §3, §4

[6] = target: JAK3 (Homo sapiens (Human), UniProt P52333); assay: Biochemical JAK kinase assay (LanthaScreen), JAK3
Sequence of JAK3 (P52333 whole entry): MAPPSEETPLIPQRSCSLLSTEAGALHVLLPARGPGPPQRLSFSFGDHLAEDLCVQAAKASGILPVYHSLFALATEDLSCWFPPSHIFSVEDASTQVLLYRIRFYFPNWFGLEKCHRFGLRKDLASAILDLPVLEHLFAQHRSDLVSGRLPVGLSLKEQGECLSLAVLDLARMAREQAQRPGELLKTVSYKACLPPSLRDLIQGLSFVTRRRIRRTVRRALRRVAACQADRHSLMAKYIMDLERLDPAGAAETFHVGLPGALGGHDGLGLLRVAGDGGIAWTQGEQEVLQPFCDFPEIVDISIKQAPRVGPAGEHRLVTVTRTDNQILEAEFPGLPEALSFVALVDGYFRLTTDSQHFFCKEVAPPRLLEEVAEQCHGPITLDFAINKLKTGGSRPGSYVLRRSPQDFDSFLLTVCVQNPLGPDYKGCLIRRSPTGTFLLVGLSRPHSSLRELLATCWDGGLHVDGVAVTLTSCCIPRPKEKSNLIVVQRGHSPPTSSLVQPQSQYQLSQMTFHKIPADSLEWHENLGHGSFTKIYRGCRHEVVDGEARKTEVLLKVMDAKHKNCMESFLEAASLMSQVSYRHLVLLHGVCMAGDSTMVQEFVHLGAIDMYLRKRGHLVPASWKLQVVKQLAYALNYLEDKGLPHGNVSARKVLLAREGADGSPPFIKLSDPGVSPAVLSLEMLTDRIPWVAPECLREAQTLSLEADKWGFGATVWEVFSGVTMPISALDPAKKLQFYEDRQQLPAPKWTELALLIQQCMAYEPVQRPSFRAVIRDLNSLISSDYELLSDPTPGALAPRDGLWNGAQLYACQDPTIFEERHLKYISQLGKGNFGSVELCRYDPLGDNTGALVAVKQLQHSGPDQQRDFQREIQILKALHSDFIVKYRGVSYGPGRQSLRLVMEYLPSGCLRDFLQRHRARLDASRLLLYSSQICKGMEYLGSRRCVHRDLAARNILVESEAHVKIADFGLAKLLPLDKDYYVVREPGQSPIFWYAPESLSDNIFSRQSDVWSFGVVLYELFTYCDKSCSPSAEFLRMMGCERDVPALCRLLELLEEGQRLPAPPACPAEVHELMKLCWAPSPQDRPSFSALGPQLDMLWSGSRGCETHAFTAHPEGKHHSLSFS
Protocol: as §2, §3, §4

CCCN1Cc2[nH]c(-c3n[nH]c4cc(-c5cc(F)c(O)cc5CC)ccc34)nc2C[C@H]1C(=O)N1C[C@@H]2C[C@H]1CN2C [Example 1, ((S)-2-(6-(2-ethyl-5-fluoro-4-hydroxyphenyl)-1H-indazol-3-yl)-5-propyl-4,5,6,7-tetrahydro-3H-imidazo[4,5-c]pyridin-6-yl)((1S,4S)-5-methyl-2,5-diazabicyclo-[2.2.1]heptan-2-yl)methanone]
IC50 [1]: ~50.1 nM | Ki [2]: 0.05 nM | Ki [3]: 0.25 nM | IC50 [4]: ~126 nM | Ki [5]: 0.02 nM | Ki [6]: 0.08 nM

CCc1cc(O)c(F)cc1-c1ccc2c(-c3nc4c([nH]3)CN(CC)[C@@H](C(=O)N3CCN(C(C)(C)C)CC3)C4)n[nH]c2c1 [Example 1-37]
IC50 [1]: ~7.94 nM | Ki [2]: 0.1 nM | Ki [3]: 1.26 nM | IC50 [4]: ~63.1 nM | Ki [5]: 0.04 nM | Ki [6]: 0.5 nM

CCc1cc(O)c(F)cc1-c1ccc2c(-c3nc4c([nH]3)CN(C(C)C)[C@H](C(=O)N3CC[C@H](N(C)C)C3)C4)n[nH]c2c1 [Example 3]
IC50 [1]: ~20 nM | Ki [2]: 0.06 nM | Ki [3]: 0.4 nM | IC50 [4]: ~63.1 nM | Ki [5]: 0.02 nM | Ki [6]: 0.1 nM
